Data on 1 molecule can be found in PMC10870298, “Rational Design of Antifungal Peptides Based on the γ-Core Motif of a Neosartorya (Aspergillus) fischeri Antifungal Protein to Improve Structural Integrity, Efficacy, and Spectrum” (ACS Omega, 2024).

Residues, ends and D or L forms follow the SMILES beside them.

Series [1] deals with plant pathogenic filamentous fungi. The note with it: previous studies; cited from earlier work. The text has this:
Presumably, these peptides exert an antifungal mechanism through membrane disruption,[17] and the high positive net charge supports this mechanism. Additionally, neither hydrop ...

Series [2] concerns C. albicans SC5314. In words: Cell-killing efficacy: growth kinetics of high-density culture and drop viability on YPD agar. Type of series: cell-based, Candida albicans. The note with it: for growth of high-density C. albicans culture: OD600 = 0.2 mid-log cells, LCM, 30 °C, 24 h. Here is the method: Compared with MIC determination, monitoring the growth kinetics of high-density cell cultures in the presence of various peptide concentrations allows for detailed insight into the cell-killing efficacy over time and how cysteine modifications influence it. Therefore, the growth of high-density C. albicans cell culture (OD600 = 0.2) was monitored in the presence of 0.5× MIC, 1× MIC, and 2× MIC of the NFAP γ-core peptides.
The experiment was conducted in a flat-bottom 96-well microtiter plate (TC Plate 96 Well, Suspension, F; Sarstedt, Nümbrecht, Germany): 100 μL of OD600 = 0.2 mid-log phase cells prepared in LCM were mixed with 100 μL of 1× MIC, 2× MIC, or 4× MIC of the peptide diluted in LCM. The plates were incubated statically at 30 °C for 24 h. The absorbance (OD600) of each well was then measured after shaking for 5 s every hour using a microtiter plate reader (BioTek Synergy HTX Multi-Mode Microplate Reader; Agilent Technologies, Santa Clara, CA, USA). Untreated cells (100 μL LCM mixed with 100 μL OD600 = 0.2 mid-log phase cells prepared in LCM) served as growth controls. To examine the viability of the treated C. albicans cells, 5–5 μL cultures from each well were dropped onto the YPD agar plate after the last OD600 measurement and allowed to dry before incubation at 30 °C for 24 h. The plates were photographed (Versa Doc Imaging System 4000 MP; Bio-Rad, Hercules, CA, USA). These experiments were repeated two times, involving three technical replicates.

Series [3] relates to A. fumigatus CBS 101355. It is filed as cell-based, Aspergillus fumigatus. The note with it: CBS 101355, 72 h. Here is the method: (§1) The lyophilized and stored peptides were dissolved in sterile ddH2O (5 mg mL^–1). Then, half of the volume of the peptide stock was tested for antifungal activity and stored at −20 °C until RP-HPLC and ECD analyses. This peptide sample is termed the −20 °C sample. The other half volume of the stock was stored at 4 °C for 7 days, tested for antifungal activity, and stored at −20 °C until RP-HPLC and ECD analyses. This peptide sample is referred to as the 4 °C sample.
(§2) MICs of NFAP γ-core peptide derivatives were determined against C. albicans SC5314 and A. fumigatus CBS 101355. These fungi were maintained on yeast peptone dextrose agar (YPD: 10 g L^–1 yeast extract, 20 g L^–1 peptone, 20 g L^–1D-glucose, 15 g L^–1 agar) and malt extract agar (MEA, Sigma-Aldrich) slants at 4 °C, respectively. Susceptibility tests were performed in low cationic medium (LCM: 5 g L^–1D-glucose, 0.25 g L^–1 yeast extract, 0.125 g L^–1 peptone) according to Tóth et al. (2018)[16] and Tóth et al. (2020)[19] for yeasts and molds, respectively, with slight modifications. Briefly, 100 μL NFAP γ-core peptide (0.39–400 μg mL^–1 in two-fold serial dilutions in LCM) was mixed with 100 μL of 2 × 10^5 mL^–1 mid-log phase C. albicans cells or freshly harvested A. fumigatus conidia in LCM in a flat-bottom 96-well microtiter plate (TC Plate 96 Well, Suspension, F; Sarstedt, Nümbrecht, Germany). A mixture of 100 μL of medium (LCM) without NFAP γ-core peptide derivative and 100 μL of cell or conidium suspension served as the untreated growth control, whereas 200 μL of LCM was used for background calibration. The plates were incubated statically for 48 h (C. albicans) or 72 h (A. fumigatus) at 30 °C. The absorbance (OD620) of each well was measured after shaking for 5 s using a microtiter plate reader (SPECTROstar Nano; BMG Labtech, Ortenberg, Germany). The absorbance of the untreated control was taken as 100% growth for the MIC calculation. MIC was defined as the lowest peptide concentration that reduced fungal growth by […] compared with the untreated control. Susceptibility tests were performed in two technical replicates and were repeated at least two times.

Series [4] in a line: Structural integrity (disulfide bridge formation on storage) by RP-HPLC. Type of series: physicochemical. Here is the method:
The half volume of the dissolved lyophilized peptides was promptly stored at −20 °C for 7 days. The other half volume of these peptides was stored at 4 °C for 7 days (oxidative condition) and then at −20 °C until RP-HPLC and electronic circular dichroism (ECD) analyses were performed. Herein, these peptide samples are referred to as −20 and 4 °C samples, respectively.
as §1
Crude peptides were purified by semipreparative RP-HPLC using a solvent system of (A) 0.1% TFA and (B) 80% acetonitrile, 0.1% TFA, and a linear gradient from 0 to 30% (B) in 60 min. Purification was performed on a Phenomenex Jupiter Proteo 90 Å column (250 × 10 mm) using a Shimadzu HPLC apparatus (Berlin, Germany). Absorbance was detected at 220 nm. Purity was evaluated by analytical RP-HPLC using a Phenomenex Luna 10 μ C18 100 A column and an Agilent 1100 HPLC instrument (Palo Alto, CA, USA).

Series [5] concerns sheep blood. The note with it: cited from earlier work. The text has this:
(§3) The clinical application of antimicrobial peptides is limited by their potential hemolytic activity, toxicity, immunogenicity, and other side effects.[27] […] Herein, we investigated how cysteine–serine substitution(s) and S-tert-butylation of these peptides influence hemolytic activ ...

The subject of series [6] is human cell lines (monocytes, colonic epithelial cells, keratinocytes). The settings on record: cited from earlier work.
Description: as §3

The test system of series [7] is C. albicans SC5314. It is filed as cell-based, Candida albicans. The note with it: SC5314, 48 h. Here is the method: as §1, §2

Take `CC[C@H](C)[C@H](NC(=O)[C@H](CCCCN)NC(=O)[C@H](CS)NC(=O)[C@H](CCCCN)NC(=O)[C@@H](NC(=O)[C@H](CCCCN)NC(=O)[C@@H](NC(=O)[C@H](CCC(=O)O)NC(C)=O)[C@@H](C)CC)[C@@H](C)CC)C(=O)N[C@@H](CCCCN)C(=O)N[C@@H](CCCCN)C(=O)N[C@H](C(=O)N[C@@H](CCCCN)C(=O)N[C@@H](CS)C(=O)N[C@@H](CCCCN)C(N)=O)[C@@H](C)CC` [NFAPimpγGZ] (Ac-EIKIKCKIKKIKCK-NH2): the antifungal activity result in series [1] is reported as “effectively inhibit the growth”. In addition, the “growth of high-density C. albicans culture” value in series [2] (1× MIC) was “allowed the multiplication of C. albicans cells within 24 h”; in series [2] (2× MIC) it was “total or high growth inhibitions”. The “proportion of cells able to multiply (culture drops on YPD agar after treatment)” value in series [2] (2× MIC, 24 h treatment at 30 °C, then 5 μL drops on YPD agar 24 h at 30 °C) is reported as “highly reduce the proportion of cells able to multiply”. For the same molecule, the MIC in series [3] is given as 25 μg mL^–1; in series [7], 12.5 μg mL^–1. The “oxidation / disulfide bridge formation (in words)” value in series [4] (4 °C sample: 5 mg mL^–1 in sterile ddH2O stored at 4 °C for 7 days (oxidative condition)) is listed as “fully oxidized to the cyclic form”. Moreover, in series [4] (–20 °C sample), the “share of the peptide with intermolecular disulfide bridges (in words)” value was “one-third”. In series [4] (–20 °C sample), the “share of the peptide with intramolecular disulfide bridges (in words)” value is “approximately one-third”. Moreover, the hemolysis result in series [5] was “did not cause hemolysis”. The “toxicity to various human cell lines” value in series [6] is listed as “impaired the viability of keratinocytes at higher concentrations”.
